Our source for the EC50 values is US7741350B1 (Cara Therapeutics, Inc., priority 2009, dated 2010).

Assay [1] deals with human CB1 receptor (hCB1) (Homo sapiens, UniProt P21554). Description: cAMP assay at human CB1 receptor. Format: cell-based. The settings on record: hCB1R; maximum measurable range 30 μM; read-out: EC50 (Potency at Human CB1 determined by cAMP Assay). As for the experimental part:
The ability of each of the compounds to act as agonists or inverse agonists at human CB2 and CB1 receptors (hCB2, hCB1, respectively) and at the rat CB2 receptor (rCB2) was determined by measuring changes in intracellular cyclic AMP (cAMP) levels as described in U.S. Pat. No. 7,517,874.
TR-FRET was measured using a 330-380 nm excitation filter, 615 nm and 665 nm emission filters, dichroic minor 380 nm and Z=10 mm. cAMP concentrations in each well were back-calculated from a cAMP standard curve run concurrently during each assay. Each plate contained 16 wells of forskolin stimulated cells and 16 wells of forskolin plus 1 μM CP55,940-treated cells. Concentrations of cAMP were expressed as a percent of the difference of these two groups of wells. Concentration-response data including EC50 (the concentration of compound producing 50% of the maximal response) and intrinsic activity (the percent maximal activation compared to full activation by CP55, 940) were determined using a four-parameter non-linear regression algorithm (CambridgeSoft Bioassay).
In general terms: Cyclic AMP is a second messenger, typically raised through Gs and lowered through Gi signalling.

For assay [2], the target named is human CB2 receptor (hCB2) (Homo sapiens, UniProt P34972). Description: cAMP assay at human CB2 receptor. It is filed as cell-based. The settings on record: hCB2R, maximum measurable range 30 μM. As for the experimental part: TR-FRET was measured using a 330-380 nm excitation filter, 615 nm and 665 nm emission filters, dichroic minor 380 nm and Z=10 mm. cAMP concentrations in each well were back-calculated from a cAMP standard curve run concurrently during each assay. Each plate contained 16 wells of forskolin stimulated cells and 16 wells of forskolin plus 1 μM CP55,940-treated cells. Concentrations of cAMP were expressed as a percent of the difference of these two groups of wells.
Sequence of human CB2 receptor (hCB2) (P34972 whole entry): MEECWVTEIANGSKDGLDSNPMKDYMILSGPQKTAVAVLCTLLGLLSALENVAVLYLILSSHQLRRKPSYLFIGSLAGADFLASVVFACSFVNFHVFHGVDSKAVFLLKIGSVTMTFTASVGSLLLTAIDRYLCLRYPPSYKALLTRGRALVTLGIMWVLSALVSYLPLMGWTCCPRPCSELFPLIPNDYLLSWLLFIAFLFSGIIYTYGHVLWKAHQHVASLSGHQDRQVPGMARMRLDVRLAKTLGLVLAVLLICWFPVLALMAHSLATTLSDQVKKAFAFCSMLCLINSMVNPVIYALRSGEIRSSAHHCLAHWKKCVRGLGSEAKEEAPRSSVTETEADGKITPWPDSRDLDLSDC

Setting [3] is: EC50 (Potency at Human CB2 determined by cAMP Assay).
[4] abbreviates: read-out: EC50 (Potency at Human CB2 determined by cAMP Assay).

Usually EC50 stands for the midpoint of the concentration-response curve.

Molecules are shown by their SMILES. Where two headings read alike, the source gives them in different places.

Sequence of human CB1 receptor (hCB1) (P21554 whole entry): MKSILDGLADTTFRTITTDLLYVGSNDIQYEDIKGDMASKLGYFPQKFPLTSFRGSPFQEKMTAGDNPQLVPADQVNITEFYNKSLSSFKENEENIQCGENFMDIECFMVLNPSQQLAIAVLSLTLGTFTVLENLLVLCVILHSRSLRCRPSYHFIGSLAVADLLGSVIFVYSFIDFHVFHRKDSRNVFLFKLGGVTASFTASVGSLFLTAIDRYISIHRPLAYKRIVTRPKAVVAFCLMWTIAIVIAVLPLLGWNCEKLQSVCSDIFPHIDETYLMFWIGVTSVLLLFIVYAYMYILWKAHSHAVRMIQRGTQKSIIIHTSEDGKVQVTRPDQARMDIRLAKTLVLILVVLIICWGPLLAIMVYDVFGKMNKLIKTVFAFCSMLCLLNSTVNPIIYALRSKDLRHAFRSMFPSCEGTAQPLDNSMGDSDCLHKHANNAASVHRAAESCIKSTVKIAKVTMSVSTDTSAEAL

On to `CNC(=O)[C@@H](NC(=O)n1nc(-c2ccc(F)cc2)c2c1CCNC2)C(C)(C)C` [Compound 53, (S)—N-(3,3-dimethyl-1-(methylamino)-1-oxobutan-2-yl)-3-(4-fluorophenyl)-4,5,6,7-tetrahydro-1H-pyrazolo[4,3-c]pyridine-1-carboxamide], for which the EC50 in assay [1] and in assay [2] (setting [3]) was under 1000 nM in each case.

Take `CN1CCc2c(c(-c3ccc(F)c(F)c3)nn2C(=O)NC(C)(C)C)C1` [Compound 46, N-tert-butyl-3-(3,4-difluorophenyl)-5-methyl-4,5,6,7-tetrahydro-1H-pyrazolo[4,3-c]pyridine-1-carboxamide]: the results for the EC50 in assay [1] and in assay [2] (setting [4]) were under 1000 nM and over 1000 nM, respectively.

Turning to `CNC(=O)[C@@H](NC(=O)n1nc(-c2ccc(F)c(F)c2)c2c1CCCC2)C(C)(C)C` [Compound 29, (S)-3-(3,4-difluorophenyl)-N-(3,3-dimethyl-1-(methylamino)-1-oxobutan-2-yl)-4,5,6,7-tetrahydro-1H-indazole-1-carboxamide], the EC50 in assay [1] and in assay [2] (setting [3]) was under 1000 nM each time.

Regarding `CC[C@H](C)[C@H](NC(=O)n1nc(-c2ccc(F)c(F)c2)c2c1CCN(C)C2)C(N)=O` [Compound 50, N-((2S,3S)-1-amino-3-methyl-1-oxopentan-2-yl)-3-(3,4-difluorophenyl)-5-methyl-4,5,6,7-tetrahydro-1H-pyrazolo[4,3-c]pyridine-1-carboxamide], the EC50 in assay [1] and in assay [2] (setting [3]) was under 1000 nM throughout.

Turning to `CN1CCc2c(c(-c3cc(F)c(F)cc3F)nn2C(=O)N[C@H](C(N)=O)C(C)(C)C)C1` [Compound 41, (S)—N-(1-amino-3,3-dimethyl-1-oxobutan-2-yl)-5-methyl-3-(2,4,5-trifluorophenyl)-4,5,6,7-tetrahydro-1H-pyrazolo[4,3-c]pyridine-1-carboxamide], the EC50 was under 1000 nM in assay [1] and over 1000 nM in assay [2] (setting [4]).

Regarding `CN1CCc2c(c(-c3ccc(F)c(F)c3)nn2C(=O)N[C@H](C(=O)N2CC[C@H](O)C2)C(C)(C)C)C1` [Compound 47, 3-(3,4-difluorophenyl)-N—((S)-1-((S)-3-hydroxypyrrolidin-1-yl)-3,3-dimethyl-1-oxobutan-2-yl)-5-methyl-4,5,6,7-tetrahydro-1H-pyrazolo[4,3-c]pyridine-1-carboxamide], the figures for the EC50 in assay [1] and in assay [2] (setting [4]) were under 1000 nM and over 1000 nM, respectively.

As for `CNC(=O)[C@@H](NC(=O)n1nc(-c2ccc(F)c(F)c2)c2c1CCNC2)C(C)(C)C` [Compound 52, (S)-3-(3,4-difluorophenyl)-N-(3,3-dimethyl-1-(methylamino)-1-oxobutan-2-yl)-4,5,6,7-tetrahydro-1H-pyrazolo[4,3-c]pyridine-1-carboxamide], the EC50 in assay [1] and in assay [2] (setting [3]) was under 1000 nM each time.

For the molecule `CNC(=O)[C@@H](NC(=O)n1nc(-c2ccc(F)c(F)c2)c2c1CN(C)CC2)C(C)(C)C` [Compound 61, (S)-3-(3,4-difluorophenyl)-N-(3,3-dimethyl-1-(methylamino)-1-oxobutan-2-yl)-6-methyl-4,5,6,7-tetrahydro-1H-pyrazolo[3,4-c]pyridine-1-carboxamide], the EC50 in assay [1] and in assay [2] (setting [3]) was under 1000 nM throughout.

Consider `CN1CCc2c(c(-c3cc(F)c(F)cc3F)nn2C(=O)N[C@H](C(=O)N2CCC(C(N)=O)CC2)C(C)(C)C)C1` [Compound 79, (S)—N-(1-(4-carbamoylpiperidin-1-yl)-3,3-dimethyl-1-oxobutan-2-yl)-5-methyl-3-(2,4,5-trifluorophenyl)-4,5,6,7-tetrahydro-1H-pyrazolo[4,3-c]pyridine-1-carboxamide], for which the results for the EC50 in assay [1] and in assay [2] (setting [4]) were under 1000 nM and over 1000 nM, respectively.

In the case of `CNC(=O)[C@@H](NC(=O)n1nc(-c2cc(F)ccc2F)c2c1CCN(C)C2)C(C)(C)C` [Compound 64, (S)-3-(2,5-difluorophenyl)-N-(3,3-dimethyl-1-(methylamino)-1-oxobutan-2-yl)-5-methyl-4,5,6,7-tetrahydro-1H-pyrazolo[4,3-c]pyridine-1-carboxamide], the EC50 in assay [1] is under 1000 nM; in assay [2] (setting [4]), over 1000 nM.

For the molecule `CN1CCc2c(c(-c3cc(F)c(F)cc3F)nn2C(=O)N[C@H](C(=O)N2CCC[C@H](O)C2)C(C)(C)C)C1` [Compound 78], the EC50 in assay [1] was under 1000 nM; in assay [2] (setting [4]) it was over 1000 nM.

`CN1CCc2c(c(-c3ccc(F)c(F)c3)nn2C(=O)N2CCC(O)CC2)C1` [Compound 45, (3-(3,4-difluorophenyl)-5-methyl-4,5,6,7-tetrahydro-1H-pyrazolo[4,3-c]pyridin-1-yl)(4-hydroxypiperidin-1-yl)methanone]: the EC50 in assay [1] and in assay [2] (setting [4]) was over 1000 nM throughout.

Take `CNC(=O)[C@@H](NC(=O)n1nc(-c2cc(C(F)(F)F)ccc2F)c2c1CCNC2)C(C)(C)C` [Compound 58, (S)—N-(3,3-dimethyl-1-(methylamino)-1-oxobutan-2-yl)-3-(2-fluoro-5-(trifluoromethyl)phenyl)-4,5,6,7-tetrahydro-1H-pyrazolo[4,3-c]pyridine-1-carboxamide]: the EC50 is under 1000 nM in assay [1] and over 1000 nM in assay [2] (setting [4]).

As for `CCOC(=O)CN1CCc2c(c(-c3cc(F)c(F)cc3F)nn2C(=O)N[C@H](C(=O)NC)C(C)(C)C)C1` [Compound 83, (S)-ethyl 2-(1-(3,3-dimethyl-1-(methylamino)-1-oxobutan-2-ylcarbamoyl)-3-(2,4,5-trifluorophenyl)-6,7-dihydro-1H-pyrazolo[4,3-c]pyridin-5(4H)-yl)acetate], the EC50 is under 1000 nM in assay [1] and over 1000 nM in assay [2] (setting [4]).

As for `CNC(=O)[C@@H](NC(=O)n1nc(-c2ccc(F)c(F)c2)c2c1CCC1(C2)OCCO1)C(C)(C)C` [Compound 63, (S)-3′-(3,4-difluorophenyl)-N-(3,3-dimethyl-1-(methylamino)-1-oxobutan-2-yl)-6′,7′-dihydrospiro[[1,3]dioxolane-2,5′-indazole]-1′(4′H)-carboxamide], the EC50 in assay [1] and in assay [2] (setting [3]) was under 1000 nM each time.

For the molecule `CNC(=O)[C@@H](NC(=O)n1nc(-c2ccc(F)cc2)c2c1CCN(C)C2)C(C)(C)C` [Compound 54, (S)—N-(3,3-dimethyl-1-(methylamino)-1-oxobutan-2-yl)-3-(4-fluorophenyl)-5-methyl-4,5,6,7-tetrahydro-1H-pyrazolo[4,3-c]pyridine-1-carboxamide], the EC50 in assay [1] and in assay [2] (setting [3]) was under 1000 nM each time.

With `CNC(=O)[C@@H](NC(=O)n1nc(-c2cc(F)c(F)cc2F)c2c1CCN(CCO)C2)C(C)(C)C` [Compound 85, (S)—N-(3,3-dimethyl-1-(methylamino)-1-oxobutan-2-yl)-5-(2-hydroxyethyl)-3-(2,4,5-trifluorophenyl)-4,5,6,7-tetrahydro-1H-pyrazolo[4,3-c]pyridine-1-carboxamide], the EC50 in assay [1] and in assay [2] (setting [3]) was under 1000 nM each time.

For `CCN1CCc2c(c(-c3cc(F)ccc3F)nn2C(=O)N[C@H](C(=O)O)C(C)(C)C)C1` [Compound 82, (S)-2-(3-(2,5-difluorophenyl)-5-ethyl-4,5,6,7-tetrahydro-1H-pyrazolo[4,3-c]pyridine-1-carboxamido)-3,3-dimethylbutanoic acid], the EC50 in assay [1] and in assay [2] (setting [3]) was over 30000 nM each time.
